Structures are written as SMILES.

The nature of data set [1]: Partition coefficient (logD). To be noted: octanol/water.
For data set [2], the target named is Glycine receptor (Rattus norvegicus). Nature of the data set: Inhibition of binding of [3H]strychnine to glycine receptor.
Data set [3] is described as follows: Inhibition of binding of [3H]strychnine to glycine receptor in rat.

In the case of `Oc1coc2[nH]cnc12`, in data set [1], the log partition coefficient (logP) was 0.33. In turn, `Nc1c(C(F)(F)F)n[nH]c1O` had an IC50 in data set [2] of 418 µM.

The molecule `Oc1coc2cc[nH]c12` had a log partition coefficient (logP) in data set [1] of 1.07. Turning to `NCC(=O)O` [GLYCINE], in data set [3], the IC50 worked out at 6 µM. Same read-out and setting: in the case of `CNCC(=O)O` [SARCOSINE] it was 350 µM.

`Nc1ccccc1O` [QUESTIOMYCIN B] gave a logP in data set [1] of 0.65. Still for that read-out and setting: the same measure for `COc1ccc(-c2[nH]nc(O)c2N)cc1`: 0.85.

For the origin of these results see ChEMBL document CHEMBL1124587 (J Med Chem, 1989).
